Format in all cases: cell-based
One experiment relates to HIV-1(Ba-L). The experiment in a line: HIV-1(BaL) p24 antigen production in human primary macrophages (M/M). As to conditions: Table 2; for EC50: Human immunodeficiency virus 1, BAL, Primary macrophage. From the text:
Viruses. The origins of MSV, HIV type 1 (HIV-1) (strain IIIB and Ba-L), HIV-2 (strain ROD) and FIV (strain Petaluma) have been described previously (Balzarini et al., AIDS 5: 21-28, 1991; De Clercq et al., Proc. Soc. Exp. Biol. Med. 137:590-594, 1971; Egberink et al., Proc. Natl. Acad. Sci. 87:3087-3091, 1990; Hartmann et al., Antiviral Chem. Chemother. 5:13-19, 1994; Popovic et al., Science 224:497-500, 1984). HIV-1(IIIB) and HIV-2(ROD) stocks were obtained from supernatants of virus-infected MT-4 cell cultures. HIV-1BaL was expanded in human primary M/M, whose supernatants were collected, filtered and stored at −80° C. before use. Characteristics of viral stocks used for this study were 2.1×10^8 HIV-RNA genomes/ml (corresponding to 35 ng of p24 antigen) and 5,000 tissue culture infectious doses 50% per ml (TCID50/ml) as assessed by virus titration in other primary M/M cultures. The isolation and characterization of the clinical HIV-1 isolates L1S, L6S and L6S/PMEA has been reported (Thormar et al., Proc. Natl. Acad. Sci. USA 93:3283-3287, 1995; Van Laethem et al., AIDS 15:553-561, 2001). The HIV-1/L1S clinical isolate was derived from a patient not treated with NRTIs (nucleoside reverse transcriptase inhibitors) or ANPs and cultured without the selective pressure of any drugs. Therefore, it contained no obvious mutations that are characteristic for NRTI- or ANP-treated patients. HIV-1/L6S is a clinical isolate from a drug-treated individual cultured without the selective pressure of any drugs. As is characteristic for NRTI-treated patients, it contained S68G, K70T, V75I, F77L, F116Y and Q151M mutations in its RT. HIV-1/L6S/PMEA is the clinical isolate HIV-1/L6S that has been isolated after culturing the virus for 11 passages in the presence of increasing concentrations of PMEA (adefovir). It gained, in addition to the mutations mentioned for HIV-1/L6S, also the PMEA-characteristic K65R mutation in its reverse transcriptase (RT).
Human primary macrophages (M/M) were prepared and purified as follows. Peripheral blood mononuclear cells (PBMC), obtained from healthy HIV-1-negative donors were separated over a Ficoll gradient and seeded in 48-well plates at 1.8×10^6 cells/well in 1 ml of RPMI 1640 containing 20% heat-inactivated, endotoxin- and mycoplasma-free fetal bovine serum (Hyclone Laboratories, Inc., Logan, Utah), 4 mM L-glutamine (Life Technologies), 50 U/ml penicillin and 50 μg/ml streptomycin (Life Technologies) (hereinafter referred to as complete medium). Five days after plating and culturing the PBMC at 37° C. in a humidified atmosphere enriched with 5% CO2-adherent cells were carefully removed with repeated washings with warmed RPMI-1640, leaving a monolayer of adherent cells which were finally incubated in complete medium. […]

The next experiment concerns HIV. Description: Anti-HIV activity across HIV-1 and HIV-2 in CEM and MT-4 cell cultures. As to conditions: HIV-1 and HIV-2 in CEM and MT-4 cells; for EC50: Human immunodeficiency virus 1, MT4, read-out: EC50 values for HIV (range over virus/cell systems). The protocol: In vitro antiviral assays. The activity against HIV-1- and HIV-2-induced cytopathicity was examined in MT-4 cell cultures at day 5 post infection and based on the determination of cell viability by trypan blue dye staining or in CEM cell cultures at day 4 to 5 post infection and based on the microscopical examination of virus-induced giant cell formation. HIV-1 and HIV-2 were added at 100 CCID50 to the cell cultures.

The subject of the next experiment is HIV-1(IIIB). The experiment in a line: HIV-1(IIIB) p24 antigen production in PBL (PHA-stimulated PBMC). As to conditions: for EC50: Human immunodeficiency virus 1, IIIB, PBMC. The protocol:
Peripheral blood mononuclear cells (PBMC) from healthy donors were isolated by density centrifugation (Lymphoprep; Nycomed Pharma, AS Diagnostics, Oslo, Norway) and stimulated with phytohemagglutin (PHA) (Sigma Chemical Co., Bornem, Belgium) for 3 days. The activated cells (PHA-stimulated blasts) were washed with PBS and viral infections were done as described by the AIDS clinical trial group protocols. Briefly, PBMCs (2×10^5/200 well) were plated in the presence of serial dilutions of the test compound and were infected with HIV stocks at 1000 CCID50 per mL. At day 4 post-infection, 125 μl of the supernatant of the infected cultures was removed and replaced with 150 μl of fresh medium containing the test compounds at the appropriate concentrations. At 7 days after plating the cells, p24 antigen was detected in the culture supernatant by an enzyme-linked immunosorbent assay (NEN, Paris, France).

The test system of a further experiment is MSV. The experiment in a line: MSV-induced transformation of murine embryo fibroblast C3H/3T3 cell cultures. The note with it: for EC50: Mus musculus. The protocol: The inhibitory effect of the test compounds on MSV-induced transformation of murine embryo fibroblast C3H/3T3 cell cultures was examined microscopically at day 6 post infection. MSV was added at 75 focus-forming units to the cell cultures. The detailed procedures for the antiretroviral evaluations has been described in detail before (Balzarini et al., AIDS 5:21-28, 1991; Balzarini et al., Antimicrob. Agents Chemother. 37:332-338, 1993; De Clercq et al., Proc. Soc. Exp. Biol. Med. 137:590-594, 1971).

The next experiment relates to FIV (strain Petaluma). The experiment in a line: Anti-FIV assay, p24 antigen in CrFK cells. As to conditions: Table 2; for EC50: Feline immunodeficiency virus, CRFK. The protocol:
For the anti-FIV assays, 10^5 CrFK cells were seeded onto 24-well tissue culture plates. Cells were cultured with 2 ml of culture medium/well containing 2.5% of fetal calf serum in the presence of various drug concentrations. The assays were carried out in triplicate. After a 1-hr incubation period at 37° C., cells were infected with FIV. Virus was left in contact with the cultures for 1 day, after which the medium was removed and new medium containing the appropriate drug concentrations was added. After 6 days, the presence of FIV p24 antigen was examined by an antigen capture assay.

[1] abbreviates: MSV-induced C3H cell transformation, Table 2.
Setting [2] is: p24 antigen production, Table 2, read-out: EC50 HIV-1 (IIIB) (PBL).
The mark [3] stands for this setting: read-out: EC50 HIV-1(IIIB) in PBL.
Setting [4] is: MSV-induced C3H cell transformation, Table 2, read-out: EC50 MSV (C3H).

≈ marks a conversion by molar mass, not a printed value. Read-outs that look alike come from different tables or passages of the source.

With `C[C@H](Cn1cnc2c(N)ncnc21)OCP(=O)(O)O` [(R)-PMPA, (R)-9-[(2-phosphonomethoxy)-propyl]adenine, reference compound], in the experiment with HIV-1(Ba-L), the “EC50 HIV-1 (BaL) (M/M)” value amounted to 0.003 ± 0.001 µg/mL (≈ 0.0104 µM). In addition, in the experiment on HIV, the “EC50 values for HIV (range over virus/cell systems)” value lay in the range of 0.36 to 0.52 µg/mL. Moreover, the “EC50 HIV-1(IIIB) in PBL” value with HIV-1(IIIB) was determined as 0.33 µg/mL (≈ 1.15 µM). Moreover, the “EC50 HIV-1 (IIIB) (PBL)” value in the experiment on HIV-1(IIIB) (p24 antigen production, Table 2) was determined as 0.09 ± 0.03 µg/mL (≈ 0.313 µM). The “EC50 MSV (C3H)” value in the experiment on MSV (setting [1]) worked out at 1.4 ± 0.9 µg/mL (≈ 4.87 µM). For the same compound, the “EC50 FIV (CrFK)” value with FIV (strain Petaluma) stood at 0.13 µg/mL (≈ 0.453 µM).
`Nc1cc(OCCOCP(=O)(O)O)nc(N)n1` [Compound 1, 2,4-diamino-6-[2-(phosphonomethoxy)ethoxy]pyrimidine]: the EC50 in the experiment on HIV-1(Ba-L) was 0.002 ± 0.001 µg/mL (≈ 0.00757 µM); with HIV it was 0.29 to 0.8 µg/mL (≈ 1.1 to 3.03 µM); in the experiment on HIV-1(IIIB) (setting [2]), 0.07 ± 0.02 µg/mL (≈ 0.265 µM); in the experiment on HIV-1(IIIB) (setting [3]), 0.07 µg/mL (≈ 0.265 µM); in the experiment on MSV (C3H, read-out: EC50 against MSV-induced C3H cell transformation), 0.05 to 0.15 µg/mL (≈ 0.189 to 0.568 µM); in the experiment on MSV (setting [4]), 0.16 ± 0.04 µg/mL (≈ 0.606 µM). Moreover, the EC50 in the experiment with FIV (strain Petaluma) turned out to be 0.25 ± 0.01 µg/mL (≈ 0.946 µM).
In the case of `Nc1cc(SCCOCP(=O)(O)O)nc(N)n1` [Compound 2, 2,4-diamino-6-{[2-(phosphonomethoxy)ethyl]-sulfanyl}pyrimidine], the figures for the EC50 with MSV (setting [4]) and in the experiment with FIV (strain Petaluma) were 1.7 ± 0.9 µg/mL (≈ 6.07 µM) and 0.97 ± 0.4 µg/mL (≈ 3.46 µM), respectively.
Regarding `C[C@H](COc1cc(N)nc(N)n1)OCP(=O)(O)O` [Compound 11, 2,4-diamino-6-(R)-[2-(phosphonomethoxy)propoxy]pyrimidine], the “EC50 HIV-1 (BaL) (M/M)” value in the experiment on HIV-1(Ba-L) was found to be 0.005 ± 0.0 µg/mL (≈ 0.018 µM). The “EC50 HIV-1(IIIB) in PBL” value in the experiment on HIV-1(IIIB) is 0.12 µg/mL (≈ 0.431 µM). In the experiment on MSV (setting [1]), the “EC50 MSV (C3H)” value turned out to be 0.05 ± 0.01 µg/mL (≈ 0.18 µM). Besides, the “EC50 FIV (CrFK)” value with FIV (strain Petaluma) was found to be 0.66 ± 0.14 µg/mL (≈ 2.37 µM).
Consider `Nc1ncnc2c1ncn2CCOCP(=O)(O)O` [PMEA, 9-[(2-phosphono-methoxy)ethyl]adenine, reference compound], for which the EC50 with HIV-1(Ba-L) was 0.006 µg/mL (≈ 0.022 µM); in the experiment with HIV it was 0.96 to 2 µg/mL (≈ 3.51 to 7.32 µM); in the experiment with HIV-1(IIIB) (setting [2]), 0.55 ± 0.41 µg/mL (≈ 2.01 µM); with HIV-1(IIIB) (setting [3]), 1.9 µg/mL (≈ 6.95 µM); in the experiment with MSV (setting [4]), 0.62 ± 0.27 µg/mL (≈ 2.27 µM); in the experiment with FIV (strain Petaluma), 0.46 ± 0.19 µg/mL (≈ 1.68 µM).

The record behind these values is patent publication US20050038058A1, “Novel compounds and methods for therapy” (Institute of Organic Chemistry and Biochemistry, priority 2001, published 2005).
